Where “and” joins values, the source holds several entries; their conditions need not be identical. Identical values can stand only once. Inconclusive results and toxic doses are left out. Cut-off read from the data, not from the text of the source: active = T/C of 150% or more; inactive = T/C below 125%.
Test system: L1210 leukemia ip in BDF1 mice, survival T/C
Assay: NCI In Vivo Anticancer Drug Screen. Data for tumor model L1210 Leukemia (intraperitoneal) in B6D2F1 (BDF1) mice
Settings: endpoint: mean survival time, higher = longer survival
In short: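 Tumor was transplanted into mice, which were then dosed with test compound or vehicle alone. Survival was recorded for each group, and the treated figure was expressed relative to the control figure.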

[1] = dose: 100.0 mg/kg/injection, schedule: Q04DX003 (ip), vehicle: saline with Tween-80
[2] = dose: 100.0 mg/kg/injection, schedule: Q04DX003 (ip), vehicle: Klucel (hydroxypropylcellulose) (HPC)
[3] = dose: 200.0 mg/kg/injection, schedule: Q04DX003 (ip), vehicle: Klucel (hydroxypropylcellulose) (HPC)
[4] = dose: 400.0 mg/kg/injection, schedule: Q04DX003 (ip), vehicle: Klucel (hydroxypropylcellulose) (HPC)
[5] = dose: 100.0 mg/kg/injection, schedule: Q01DX009 (ip), vehicle: saline with Tween-80
[6] = dose: 200.0 mg/kg/injection, schedule: Q01DX009 (ip), vehicle: saline with Tween-80
[7] = dose: 200.0 mg/kg/injection, schedule: Q04DX003 (ip), vehicle: saline with Tween-80
[8] = dose: 400.0 mg/kg/injection, schedule: Q01DX009 (ip), vehicle: saline with Tween-80
[9] = dose: 400.0 mg/kg/injection, schedule: Q04DX003 (ip), vehicle: saline with Tween-80

Measured: T/C

CCCCOc1ccc(C(N)=S)c2ccccc12
inactive: dose: 100.0 mg/kg/injection, schedule: Q01DX001 (ip), vehicle: Klucel (hydroxypropylcellulose) (HPC) 105 % of control | dose: 200.0 mg/kg/injection, schedule: Q01DX001 (ip), vehicle: Klucel (hydroxypropylcellulose) (HPC) 112 % of control | dose: 400.0 mg/kg/injection, schedule: Q01DX001 (ip), vehicle: Klucel (hydroxypropylcellulose) (HPC) 94 % of control

CCSC(SCC)C(OC(C)=O)C(OC(C)=O)C(OC(C)=O)C(CNC(C)=O)OC(C)=O (stereo not given)
inactive: dose: 25.0 mg/kg/injection, schedule: Q04DX003 (ip), vehicle: saline with Tween-80 97 % of control | dose: 50.0 mg/kg/injection, schedule: Q04DX003 (ip), vehicle: saline with Tween-80 94 % of control | [1] 93 % of control and 89 % of control

C=C1C=C(C)N(C(=O)c2ccccc2Br)CCN1C(=O)c1ccccc1Br
inactive: [2] 96 % of control | [3] 105 % of control | [4] 100 % of control

O=C(N/N=C/c1ccc2c(c1)CCC2)c1cccs1
inactive: [2] 97 % of control | [3] 103 % of control | [4] 107 % of control

CCN(C(=O)Nc1cccc(Cl)c1)c1ccccc1
inactive: [5] 90 % of control | [1] 96 % of control | [6] 90 % of control | [7] 97 % of control | [8] 86 % of control | [9] 97 % of control

c1ccc2cc(Nc3ccc(Nc4ccc5ccccc5c4)cc3)ccc2c1
inactive: dose: 75.0 mg/kg/injection, schedule: Q01DX009 (ip), vehicle: Klucel (hydroxypropylcellulose) (HPC) 103 % of control | dose: 100.0 mg/kg/injection, schedule: Q04DX003 (ip), vehicle: saline 106 % of control | dose: 150.0 mg/kg/injection, schedule: Q01DX009 (ip), vehicle: Klucel (hydroxypropylcellulose) (HPC) 104 % of control | dose: 200.0 mg/kg/injection, schedule: Q04DX003 (ip), vehicle: saline 97 % of control | dose: 300.0 mg/kg/injection, schedule: Q01DX009 (ip), vehicle: Klucel (hydroxypropylcellulose) (HPC) 110 % of control | dose: 400.0 mg/kg/injection, schedule: Q04DX003 (ip), vehicle: saline 100 % of control

COB(C1CCCCC1)C1CCCCC1
inactive: [2] 91 % of control | [3] 98 % of control | [4] 100 % of control

NCCCNc1ccc([N+](=O)[O-])cc1
inactive: dose: 37.5 mg/kg/injection, schedule: Q04DX003 (ip), vehicle: saline 101 % of control | dose: 75.0 mg/kg/injection, schedule: Q04DX003 (ip), vehicle: saline 102 % of control | dose: 150.0 mg/kg/injection, schedule: Q04DX003 (ip), vehicle: saline 101 % of control

CC12CCC3c4cc(N)c(O)cc4CCC3C1CCC2=O (stereo not given)
inactive: dose: 100.0 mg/kg/injection, schedule: Q04DX002 (ip), vehicle: Klucel (hydroxypropylcellulose) (HPC) 92 % of control | dose: 200.0 mg/kg/injection, schedule: Q04DX002 (ip), vehicle: Klucel (hydroxypropylcellulose) (HPC) 99 % of control | dose: 400.0 mg/kg/injection, schedule: Q04DX002 (ip), vehicle: Klucel (hydroxypropylcellulose) (HPC) 101 % of control

CC(=O)Nc1ncnc2c1c(C(N)=O)cn2C1OC(COC(C)=O)C(OC(C)=O)C1OC(C)=O (stereo not given)
inactive: dose: 100.0 mg/kg/injection, schedule: Q01DX001 (ip), vehicle: water 102 % of control

CCOC(=O)c1ccc(NC(=O)Nc2ccccc2OC)cc1
inactive: dose: 100.0 mg/kg/injection, schedule: Q01DX001 (ip), vehicle: saline with Tween-80 89 % of control | [5] 92 % of control | dose: 100.0 mg/kg/injection, schedule: Q04DX002 (ip), vehicle: saline with Tween-80 94 % of control and 87 % of control | dose: 200.0 mg/kg/injection, schedule: Q01DX001 (ip), vehicle: saline with Tween-80 92 % of control | [6] 95 % of control | dose: 200.0 mg/kg/injection, schedule: Q04DX002 (ip), vehicle: saline with Tween-80 87 % of control and 91 % of control | [7] 87 % of control | dose: 400.0 mg/kg/injection, schedule: Q01DX001 (ip), vehicle: saline with Tween-80 86 % of control | [8] 87 % of control | dose: 400.0 mg/kg/injection, schedule: Q04DX002 (ip), vehicle: saline with Tween-80 87 % of control | [9] 92 % of control
